Legend:
[1] = test system: c-Kit+ mucosal mast cells of the small intestine; test: Ex vivo mast cell activation test (MCAT); assay type: cell-based, mouse; conditions: cells from allergic mice, HRF-2CA 300 μg/ml
Description: FIGS. 2A-2C show mucosal mast cells can be activated ex vivo by antigen. Cells were released with EDTA from small intestines of non-sensitized/OVA challenged (Cont) or OVA-sensitized/OVA-challenged (OVA) mice, and mononuclear cells were selected. The cells were incubated for 15 min at 37° C. with OVA or anti-IgE antibody, and activation of Kit^+ mast cells was measured by flow cytometry (FIG. 2A, FIG. 2B). **, ***: p<0.01, p<0.001 by Student's t-test. (n=2; a representative of 2 independent experiments) (FIG. 2C) Mucosal cells derived from OVA-sensitized/OVA-challenged mice were stimulated with PBS (n=4), OVA (10 ng/ml, n=4) or HRF dimer (100 μg/ml, n=2) in the presence or absence of HRF-2CA (300 μg/ml).
FIGS. 11A-11C show HRF dimer, but not monomer can activate mast cells. (FIG. 11A) Purified dimeric and monomeric HRF expressed in E. coli. Recombinant HRF-[…] was purified first by Histrap HP and then Sephacryl S-200 HR16/60. Two peaks were observed by Sephacryl size fractionation. The first (Fr1) and second (Fr3) peaks contained dimer and monomer, respectively, as shown by SDS-PAGE. Fr1 and Fr3 were used for mast cell stimulation. (FIG. 11B) Cells were released with 10 mM EDTA from small intestines of OVA-sensitized/OVA-challenged mice, and mononuclear cells were selected. The cells were incubated for 15 min at 37° C. with mHRF monomer or dimer (100 μg/ml), or PBS, and Kit^+ mast cell activation (LAMP-1^+) was measured by flow cytometry (n=3). (FIG. 11C) Control experiments indicate an excellent specificity of the assay for HRF multimers. HRF-2CA (2CA) was used as a monomer control (n=2 for each concentration). Note that total concentrations of the 1:9 mixture of dimer:monomer gave almost the same luminescence values as did ten-fold less concentrations of dimer.
Twenty-four hours after the last OVA challenge, mice were sacrificed and small intestines (0.5-15 cm from stomach) were collected. The intestinal tissues were opened longitudinally and washed with PBS. Then, the tissues were incubated with 10 mM EDTA-PBS for 30 min at 37° C. After incubation, the tissues were transferred to 30 ml PBS in 50 ml tubes and vigorously shaken. After washed, the cells were resuspended in 40% Percoll solution and slowly loaded on the top of 75% Percoll solution. The cells were then centrifuged (2000 rpm, 20 min) and lymphocytes were collected. The cells were once centrifuged and resuspended in Tyrode's buffer. Abs (Biotin-anti-CD4 mAb (clone RM4-5), Biotin-anti-CD8 mAb (clone 53-6.7), Biotin-anti-B220 mAb (clone RA3-6B2), Biotin-anti-CD326 mAb (clone G8.8), PE-anti-CD117 (clone 2B8), AlexaFluor647-anti-LAMP-1 mAb (clone 1D4B)) (Biolegend) were added and cells were then stimulated with OVA, anti-IgE (clone RME-1, BioLegend) and recombinant dimeric murine HRF for 15 min at 37° C. After activation, cells were washed and incubated with FITC-streptavidin (Catalog #405202, Biolegend) for 30 min at 4° C. LAMP-1 expression was detected using FACS Calibur. Data were analyzed using FlowJo software.

[2] = test system: OVA-induced food allergy (allergic diarrhea); test: IgE-mediated experimental food allergy, i.g. pretreatment with HRF inhibitor before each OVA challenge; assay type: in vivo, mouse; conditions: i.g. pretreatment; serum ELISA
Description: FIGS. 1A-1I show GST-N19 inhibits the development of diarrhea and intestinal mastocytosis in murine food allergy. Mice were i.p. sensitized with OVA ([…]) plus alum on days 0 and 14. From day 28, mice were i.g. challenged with OVA (50 mg) three times a week. Sensitized mice were either non-pretreated (−) or i.g. pretreated with 100 μg of GST or GST-N19 (N19). (FIG. 1A) Procedure scheme. (FIG. 1B) The development of diarrhea was monitored for 90 min after each OVA challenge. (n=5 for non-sensitized group, n=3 for inhibitor non-pretreated group, n=4 for GST group, n=6 for N19 group, data are representative of at least 3 independent experiments) Log-rank test: p=0.028 (GST vs. GST-N19), p=0.036 (control vs. GST-N19). […] (FIG. 1C-FIG. 1E) Total IgE, IgG1, HRF, and HRF-reactive IgE and IgG in sera were measured by ELISA. (FIG. 1F) Serum mMCP-1 was also measured by ELISA. (FIG. 1G) Sections of jejunum were stained with chloroacetate esterase to identify mast cells. Sections indicated by rectangles are enlarged in lower rows. Bar=100 μm in large pictures and 50 μm in insets. (FIG. 1H) Flow cytometry was performed to enumerate MMC9s (Lin^−c-Kit^+ST2^+IL-17RB^−Integrin β7^lo) in jejunum. (n=14 for non-sensitized group, n=15 for inhibitor non-pretreated group, n=9 for GST group, n=9 for GST-N19 group, pooled data of 3 independent experiments) (FIG. 1I) Cytokine mRNAs in jejunum were quantified by qRT-PCR. *, **: p<0.05, p<0.01 by ANOVA with Tukey's multiple comparison.
Mice were i.p. sensitized with OVA (50 μg/mouse) plus alum on days 0 and 14. From day 28, mice were i.g. challenged with OVA (25 or 50 mg) or PBS (control) three times a week. Before each challenge, mice were starved for 3 h, then i.g. pretreated with GST, GST-N19 (100 μg/mouse), synthetic N19 peptide, or HRF-2CA. The development of diarrhea was monitored for 90 min after OVA challenge. Diarrhea severity (30) was based on states of stool: solid (score 0), funicular (score 1), slurry (score 2), and watery (score 3).
For histologic analysis, jejunal tissue was fixed in 10% formalin. Mast cells in jejunal sections were detected by chloroacetate esterase staining. IgE, IgG, IgG1, IgG2a, mMCP-1, HRF, HRF-reactive IgE, and HRF-reactive IgG 24 h after the last OVA challenge were measured by ELISA (see Supplemental Information). Cytokine mRNAs in jejunum were quantified by qRT-PCR.
Twenty-four hours after the last OVA challenge, mice were sacrificed and small intestines (0.5-15 cm from stomach) were collected. The intestinal tissues were opened longitudinally and washed with HBSS. The washed tissues were incubated with 5 mM EDTA-HBSS for 30 min at 4° C., transferred to 30 ml HBSS in 50 ml tubes, and vigorously shaken to remove intestinal epithelial cells. The tissues were then washed with 10 ml of 10% FCS RPMI medium. Tissues were cut into tiny pieces and incubated with 2.4 mg/ml Collagenase D and 0.2 mg/ml DNase for 30 min at 37° C. Then cells were washed, resuspended in 44% Percoll solution, and slowly loaded on the top of 67% Percoll solution. The cells were centrifuged (1800 rpm, 20 min) and lymphocyte fractions were collected and used for detection of MMC9s (Lin^−c-Kit^+ST2^+IL-17RB^−Integrin β7^lo).
The cells were first incubated with 2.4G2 for 15 min at 4° C. and further incubated with Abs (PE-anti-07 integrin mAb (clone FIB504), PerCP/Cy5.5-anti-CD4 mAb (clone RM4-5), PerCP/Cy5.5-anti-CD8 mAb (clone 53-6.7), PerCP/Cy5.5-anti-CD11b mAb (clone M1/70), PerCP/Cy5.5-anti-CD11c mAb (clone N418), PerCP/Cy5.5-anti-B220 mAb (RA3-6B2), PerCP/Cy5.5-anti-Ly-6G/Ly-6C mAb (clone RB6-8C5), PerCP/Cy5.5-anti-CD335 mAb (clone 29A1.4), AlexaFluor647-anti-IL-17RB (clone 9B10), APC/Cy7-anti-CD117 (clone 2B8), Biotin-anti-ST2 (clone DIH9)) (Biolegend) for 30 min at 4° C. After washed, the cells were incubated with SA-BV421 (Biolegend) for 30 min at 4° C. MMC9 population was identified using FACS Canto. Data were analyzed using FlowJo software.

[3] = test system: BEAS-2B human bronchial epithelial cells; test: HRF secretion, western blot, BEAS-2B; assay type: cell-based; conditions: cultured cells scraped and treated with adenosine and ATP
Excerpt: As lung epithelial cells are exposed to the environment, HRF secretion was studied using BEAS-2B human bronchial epithelial cells. A small amount of HRF was secreted constitutively, but house dust mite allergens induced the secretion of high-molecular-weight HRF species (HMW-HRFs). Various cytokines including epithelial derived cytokines as well as Th2 cytokines and proinflammatory cytokines further enhanced HDM-induced secretion of HMW-HRFs.
Cultured cells were scraped and treated with adenosine and ATP, which should be abundantly present in inflammatory or injured tissues. These conditions induced secretion of HRF monomer, dimer and HMW-HRFs like stimulation with HDM plus cytokines.
Culture supernatants were analyzed by SDS-PAGE under nonreducing (−DTT) and reducing (+DTT) conditions, followed by western blotting for HRF probing. HDM-induced HRF secretion was enhanced not only by Th2 cytokines (IL-4, IL-5, and IL-13), but also by epithelial derived cytokines (IL-25, IL-33, and TSLP) and proinflammatory cytokines (IL-1beta, IL-6 and TNF). med, medium alone; US, unstimulated; HDM, house dust mite; CR, cockroach; RW, ragweed; Af, Aspergillus fumigatus. Arrowhead, HRF monomer.

IgE+ mMCP-1+ mast cells = test: Localization of gavaged HRF inhibitors in jejunum by confocal microscopy; assay type: in vivo, mouse; conditions: mice with allergic diarrhea, 1 h after i.g. gavage of 0.1 mg, anti-GST staining
Description: HRF multimers in the jejunum of non-sensitized/OVA challenged (Cont, n=6) or OVA-sensitized/OVA-challenged (OVA, n=5) mice were quantified by a newly developed ELISA (FIG. 3A, FIG. 3C). HRF was also measured by ELISA (FIG. 3B). HRF dimer and monomer were quantified by western blotting in control (Cont) and food allergic mice treated without (OVA) or with GST (GST) or GST-N19 (N19) (n=5 for each group) (FIG. 3D). Allergic diarrhea was induced by 6 challenges. On the day of 7th challenge, the mice were gavaged with 0.1 mg of GST or GST-N19 (FIG. 3E). One hour later, mice were sacrificed without OVA challenge. Jejunum tissues were stained for GST, IgE, and mMCP-1 before confocal microscopy (n=5 for GST and n=6 for GST-N19). Arrows indicate cells positive for GST or GST-N19 as well as IgE and mMCP-1. […] Bars=50 μm.
Jejunum biopsy was fixed in 4% paraformaldehyde at 4° C., washed in 10-20% sucrose in phosphate buffered saline, and embedded in O.C.T. compound (Sakura Finetek, Japan). Cyrosections were made in 6 μm and blocked with 2% skim milk. Immunostaining was performed with anti-HRF (rabbit polyclonal FL-172), anti-GST (rabbit polyclonal Z-5) (Santa Cruz Biotechnology), anti-IgE (clone RME-1 from Biolegend and clone R35-72 from BD Biosciences), anti-mMCP1 (Catalog #AF5146, R&D Systems), anti-CD45 (clone 30-F11), anti-CD63 (clone NVG-2) (Biolegend), and anti-Siglec F (clone E50-2440, BD Biosciences) as primary antibodies, and anti-Rabbit Alexa Fluor 647 (Catalog #A21245), anti-Rat Alexa Fluor 568 (Catalog #A11077), and anti-Sheep Alexa Fluor 555 (Catalog #A11015) (Thermo Fisher Scientific) as secondary antibodies. Coverslips were mounted with Prolong Gold with DAPI (Thermo Fisher Scientific) and fluorescence was observed under Leica TCS SP2 confocal microscopy (Leica) and Nuance Multi spectral Imaging System (PerkinElmer).
Applicant next tested whether HRF inhibitors target mucosal mast cells. To this end, mice with allergic diarrhea were i.g. gavaged with GST-N19 or GST, and their location was identified 1 h after their gavage.

## synthetic N19 peptide: synthesized N19 peptide (N-terminal 19 amino acids of HRF); HRF inhibitor (MIIYRDLISHDEMFSDIYK)
[1]; HRF dimer 100 μg/ml
  HRF-induced activation of mucosal mast cells: significantly suppressed
[1]; OVA 10 ng/ml
  OVA-induced activation of mucosal mast cells: significantly suppressed
[2]
  levels of total IgE, IgG1, IgG2a or HRF-reactive IgE and IgG: failed to affect

## Nc1ncnc2c1ncn2[C@@H]1O[C@H](COP(=O)(O)OP(=O)(O)OP(=O)(O)O)[C@@H](O)[C@H]1O [ATP]
[3]
  secretion of HRF monomer, dimer and HMW-HRFs: induced

## Nc1ncnc2c1ncn2[C@@H]1O[C@H](CO)[C@@H](O)[C@H]1O [adenosine]
[3]
  secretion of HRF monomer, dimer and HMW-HRFs: induced

## GST: GST protein used as control for GST-N19 [reference compound]
IgE+ mMCP-1+ mast cells
  IgE+ mMCP-1+ mast cells co-localized with the substance: 34%

Source: patent US20220241369A1, “COMPOSITIONS AND METHODS OF MODULATING INFLAMMATION” (La Jolla Institute for Allergy and Immunology, priority 2018, published 2022)
